This is an account of results in ChEMBL document CHEMBL1135401, “Pharmacophore mapping of a series of 2,4-diamino-5-deazapteridine inhibitors of Mycobacterium avium complex dihydrofolate reductase” (J Med Chem, 2002).

For assay [1], the target named is T1, Dihydrofolate reductase (Homo sapiens, UniProt P00374).
T1 sequence (P00374 whole entry): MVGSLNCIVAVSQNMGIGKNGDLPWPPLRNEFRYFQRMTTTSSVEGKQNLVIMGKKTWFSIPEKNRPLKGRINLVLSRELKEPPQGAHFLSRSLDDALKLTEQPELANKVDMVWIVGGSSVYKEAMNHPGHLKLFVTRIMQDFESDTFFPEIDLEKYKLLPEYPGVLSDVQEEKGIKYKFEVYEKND
Nature of the assay: Antimycobacterial activity against Human dihydrofolatereductase (hDHFR).

Assay [2] has as its target T2, Dihydrofolate reductase (Mycobacterium avium, UniProt O30463).
T2 sequence (O30463 whole entry): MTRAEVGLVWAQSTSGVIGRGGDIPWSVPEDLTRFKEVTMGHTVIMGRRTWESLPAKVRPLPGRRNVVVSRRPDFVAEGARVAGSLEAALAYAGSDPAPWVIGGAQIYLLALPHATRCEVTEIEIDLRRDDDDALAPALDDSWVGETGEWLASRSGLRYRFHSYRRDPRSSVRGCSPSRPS
As to the kind of experiment: Antimycobacterial activity against Mycobacterium avium complex dihydrofolate reductase (MAC DHFR).

The target in assay [3] is T1, Dihydrofolate reductase. As to the kind of experiment: Antimycobacterial activity against human dihydrofolate reductase (hDHFR).
In assay [4] the target is T1, Dihydrofolate reductase.
In assay [5] the target is T2, Dihydrofolate reductase. As to the kind of experiment: Antimycobacterial activity scale was evaluated and found to be highly active against MAC Dihydrofolate reductase.

Some results are limits rather than exact numbers.

In the case of `COc1cc(NCc2cnc3nc(N)nc(N)c3c2C)cc(OC)c1`, the figures for the IC50 on Dihydrofolate reductase [1] and on Dihydrofolate reductase [2] were 15 nM and 20 nM, respectively.
As to `Cc1c(CNc2cccc3ccccc23)cnc2nc(N)nc(N)c12`, the IC50 (commonly the midpoint of a concentration-inhibition curve) on Dihydrofolate reductase [3] was 4.3 nM; on Dihydrofolate reductase [4], below 100 nM; against Dihydrofolate reductase [2], 0.81 nM.
As for `COc1cc(SCc2cnc3nc(N)nc(N)c3c2C)cc(OC)c1OC`, the results for the IC50 on Dihydrofolate reductase [3] and against Dihydrofolate reductase [2] were 1200 nM and 4.5 nM, respectively.
In the same order, the values of `COCc1c(CNc2cc(OC)ccc2OC)cnc2nc(N)nc(N)c12` are 31000 nM and 2400 nM.
Taken in the same sequence, the figures for `COc1ccc(SCc2cnc3nc(N)nc(N)c3c2C)cc1OC` were 440 nM and 1.5 nM.
Taken in the same sequence, the figures for `CCc1c(CNc2cc(C(F)(F)F)ccc2OC)cnc2nc(N)nc(N)c12` were 3.6 nM and 0.88 nM.
Regarding `Cc1cc(NCc2cnc3nc(N)nc(N)c3c2C)c(Cl)cc1F`, the IC50 against Dihydrofolate reductase [3] came to 33 nM; against Dihydrofolate reductase [2], 0.78 nM.
In the same order, the values of `CCc1c(CNc2cc(OC)ccc2OC)cnc2nc(N)nc(N)c12` are 1000 nM and 2.8 nM.
As for `CCCOc1ccc(NCc2cnc3nc(N)nc(N)c3c2C)cc1OC`, the IC50 against Dihydrofolate reductase [3] was 15 nM; against Dihydrofolate reductase [5] it was below 10 nM; against Dihydrofolate reductase [2], 0.93 nM.
For `COc1ccc(C(F)(F)F)cc1NCc1cnc2nc(N)nc(N)c2c1C`, the IC50 at Dihydrofolate reductase [3] was determined as 2.7 nM; at Dihydrofolate reductase [2] it was 0.66 nM.
`Cc1c(CNc2ccc(Cl)cc2)cnc2nc(N)nc(N)c12`: the half-inhibitory concentration (IC50) against Dihydrofolate reductase [3] is 27 nM; on Dihydrofolate reductase [2], 0.84 nM.
Regarding `Cc1cc(C)c(NCc2cnc3nc(N)nc(N)c3c2C)c(Cl)c1`, the IC50 against Dihydrofolate reductase [3] was determined as 850 nM; at Dihydrofolate reductase [2], 3.8 nM.
In the case of `COc1cc(CCc2cnc3nc(N)nc(N)c3c2C)cc(OC)c1`, the IC50 at Dihydrofolate reductase [3] came out at 990 nM; against Dihydrofolate reductase [2], 1.5 nM.
As for `Cc1cc(NCc2cnc3nc(N)nc(N)c3c2C)ccc1Br`, the IC50 against Dihydrofolate reductase [3] was 6.1 nM; at Dihydrofolate reductase [2] it was 0.87 nM.
Consider `Cc1c(CNc2cccc3cnccc23)cnc2nc(N)nc(N)c12`, for which the IC50 came out at 4 nM on Dihydrofolate reductase [3] and 0.87 nM against Dihydrofolate reductase [2].
As for `COc1ccc(OC)c(SCc2cnc3nc(N)nc(N)c3c2C)c1`, the IC50 is 2500 nM on Dihydrofolate reductase [3] and 23 nM on Dihydrofolate reductase [2].
With `COc1ccc(C)c(NCc2cnc3nc(N)nc(N)c3c2C)c1`, the IC50 is 150 nM on Dihydrofolate reductase [3] and 0.4 nM against Dihydrofolate reductase [2].
As to `COc1cc(OC)cc(N(C)Cc2cnc3nc(N)nc(N)c3c2C)c1`, the figures for the IC50 on Dihydrofolate reductase [3] and against Dihydrofolate reductase [2] were 8.7 nM and 0.73 nM, respectively.
For the compound `COCc1c(CNc2cc(OC)c(OC)c(OC)c2)cnc2nc(N)nc(N)c12`, the values for the IC50 on Dihydrofolate reductase [3] and on Dihydrofolate reductase [2] were 1300 nM and 550 nM, respectively.
With `Cc1c(CNc2cccc3c2CCCC3)cnc2nc(N)nc(N)c12`, the IC50 on Dihydrofolate reductase [3] is 142 nM; against Dihydrofolate reductase [2], 0.93 nM.
Take `Cc1c(CNc2cc(C(F)(F)F)ccc2F)cnc2nc(N)nc(N)c12`: the IC50 is 4.1 nM at Dihydrofolate reductase [3] and 0.86 nM on Dihydrofolate reductase [2].
Regarding `CCc1c(CNc2cc(C)ccc2OC)cnc2nc(N)nc(N)c12`, the IC50 against Dihydrofolate reductase [3] came out at 370 nM; at Dihydrofolate reductase [2] it was 3.1 nM.
In the case of `COc1ccc(OC)c(NCc2cnc3nc(N)nc(N)c3c2C)c1`, the IC50 against Dihydrofolate reductase [3] is 1000 nM; at Dihydrofolate reductase [2], 1.1 nM.
